Test results as given in patent US20220332742A1, “Naringin-Loaded Metal Organic Frameworks” (Colgate-Palmolive Company, priority 2021, published 2022).
Values after ≈ are worked out from the molar mass of the structure shown.

Columns and labels:
Format in all cases: cell-based
IL-2 = IL-2 release from EL4 T cells, ELISA; settings: 24 hours
Method: (§1) The ability of naringin-loaded MIL-101(Fe) to promote the release of IL-2 and TNF-alpha from EL4 T cells is evaluated. Enzyme-linked immunosorbent assay (ELISA) is performed according to the manufacturer specifications. Briefly, EL-4 T-cells are incubated in 96-well plates at an initial density of 8000 cells/well. The cell cultures are treated with either MIL-101(Fe), naringin or naringin-loaded MIL-101(Fe) (Example 1(d)) at the following concentrations in PBS: 0, 100, and 200 μg/mL. The plates are incubated for 24 hours at 37° C. in 5% CO2 atmosphere. The solutions are then transferred to a V-shaped 96 well plate and centrifuged at 500 g for 5 minutes. The supernatant solutions are then collected and the recommend ELISA protocol is performed. Absorbance at 450 and 540 nm is measured using a 96-well plate reader, and the results are compared to cytokine standard solutions.

Bacillus subtilis = experiment: Antibacterial activity, MIC by micro-dilution method; settings: TSB, lowest concentration that completely inhibits growth
Method: The antibacterial activity of the prepared MOF complexes is determined against Bacillus subtilis, by calculating minimal inhibitory concentration (MIC) using the micro-dilution method. Briefly, test samples are diluted with TSB solution to 2 mg/mL, and then further serial dilutions are prepared in TSB. Bacterial cultures are incubated in TSB for 16 hours, then 100 microliter suspensions are transferred to 4 mL of fresh medium and incubated for another 6 hours in order to reach mid-log phase stage. Then, the bacteria are diluted to provide 10^6 colony-forming units per mL (CFU/mL) based on OD600 measurement. […] The tested products are the naringin-loaded MOF prepared from 0.5 mg/ml naringin in ethanol, 0.5 mg/mL naringin in 1:4 ethanol/water solution, and 1 mg/mL naringin in 1:2.2 ethanol/water solution.

[1] = system: H1299 mouse lung tumor cells; experiment: Tumor cell cytotoxicity, ATP viability assay (ATPLite 1-step Luminescence)
Method: The ability of naringin-loaded MIL-101(Fe) to kill H1299 […] lung tumor cells is evaluated using the ATP viability assay (Perkin Elmer, ATPLite 1-step Luminescence Assay). H1299 cells are seeded at 5000 cells/mL in white 96-well plates and incubated with either MIL-101(Fe), naringin or naringin-loaded MIL-101(Fe) (Example 1(d) at the following concentrations: 0, 3.125, 25, 50, 100, and 200 μg/mL. The ATP kit solution is then added to each well, and a 96-well microplate reader is used to measure total luminescence. Cell viability is calculated as a percentage of the luminescence of the untreated control. The results are shown in the following table: […]

TNF-alpha = TNF-alpha release from EL4 T cells, ELISA; settings: 24 hours
Method: as §1

[2] = EL4 T cell viability, ATP viability assay (ATPLite 1-step Luminescence); settings: mouse, EL4 T cells
Method: The ability of naringin-loaded MIL-101(Fe) to promote the viability of EL4 T cells is evaluated using the ATP viability assay (Perkin Elmer, ATPLite 1-step Luminescence Assay). EL4 T cells are seeded at 8000 cells/mL in white 96-well plates and incubated with either naringin or naringin-loaded MIL-101(Fe) (Example 1(d)) at the following concentrations: 3.125, 6.25, 12.5, 25, 50, 100, and 200 μg/mL. The ATP kit solution is then added to each well, and a 96-well microplate reader is used to measure total luminescence. Cell viability is calculated as a percentage of the luminescence of the untreated control.

[3] = 3.125 µg/mL of agent, % of untreated control

MIC (Bacillus subtilis): 5000 µg/mL (≈ 8.61 mM)
Structure (SMILES): C[C@@H]1O[C@@H](O[C@H]2[C@H](Oc3cc(O)c4c(c3)O[C@H](c3ccc(O)cc3)CC4=O)O[C@H](CO)[C@@H](O)[C@@H]2O)[C@H](O)[C@H](O)[C@H]1O [Naringin]
IL-2 concentration (IL-2; 100 µg/mL of agent): 15.22 pg/mL
IL-2 concentration (IL-2; 200 µg/mL of agent): 16.49 pg/mL
Cell viability (%) [1, 3]: 85.97%
Cell viability (%) ([1]; 25 µg/mL of agent): 73.26%
Cell viability (%) ([1]; 50 µg/mL of agent): 80.15%
Cell viability (%) ([1]; 100 µg/mL of agent): 87.10%
Cell viability (%) ([1]; 200 µg/mL of agent): 83.23%
TNF-alpha concentration (TNF-alpha; 100 µg/mL of agent): 10.64 pg/mL
TNF-alpha concentration (TNF-alpha; 200 µg/mL of agent): 9.92 pg/mL
viability at 3.125 µg/mL [2, 3]: 77%
viability at 6.25 µg/mL ([2]; 6.25 µg/mL of agent): 75.8%
viability at 12.5 µg/mL ([2]; 12.5 µg/mL of agent): 72.1%
viability at 25 µg/mL ([2]; 25 µg/mL of agent): 67%
viability at 50 µg/mL ([2]; 50 µg/mL of agent): 74.9%
viability at 100 µg/mL ([2]; 100 µg/mL of agent): 80.3%
viability at 200 µg/mL ([2]; 200 µg/mL of agent): 84.7%
